Laboratory results published in patent US12570695B2, “Bicyclic peptide ligands specific for EphA2” (priority 2019, dated 2026).
Starred links: 1 amine or outer side, 2 acyl side, 3 side chain; linkers in the order of their positions; H or OH if unused. Positions of bridges follow the written chain, without caps; N, C: chain ends. Non-standard residues stand in square brackets, D forms with d. Residues, ends and D or L forms follow the SMILES beside them. X5 = O=C(CCSCCN[*:3])N1CN(C(=O)CC[*:1])CN(C(=O)CC[*:2])C1; TATA = O=C(CC[*:1])N1CN(C(=O)CC[*:2])CN(C(=O)CC[*:3])C1; Dip = N[C@H](C(=O)O)C(c1ccccc1)c1ccccc1; Hyp = O=C(O)[C@@H]1C[C@@H](O)CN1; hArg = N=C(N)NCCCC[C@H](N)C(=O)O; Aad = N[C@@H](CCCC(=O)O)C(=O)O; NMeA = CN[C@@H](C)C(=O)O; Mpa = O=C(O)CCS

Biological target: human EphA2 (Homo sapiens, UniProt P29317)
Sequence (P29317 24-976): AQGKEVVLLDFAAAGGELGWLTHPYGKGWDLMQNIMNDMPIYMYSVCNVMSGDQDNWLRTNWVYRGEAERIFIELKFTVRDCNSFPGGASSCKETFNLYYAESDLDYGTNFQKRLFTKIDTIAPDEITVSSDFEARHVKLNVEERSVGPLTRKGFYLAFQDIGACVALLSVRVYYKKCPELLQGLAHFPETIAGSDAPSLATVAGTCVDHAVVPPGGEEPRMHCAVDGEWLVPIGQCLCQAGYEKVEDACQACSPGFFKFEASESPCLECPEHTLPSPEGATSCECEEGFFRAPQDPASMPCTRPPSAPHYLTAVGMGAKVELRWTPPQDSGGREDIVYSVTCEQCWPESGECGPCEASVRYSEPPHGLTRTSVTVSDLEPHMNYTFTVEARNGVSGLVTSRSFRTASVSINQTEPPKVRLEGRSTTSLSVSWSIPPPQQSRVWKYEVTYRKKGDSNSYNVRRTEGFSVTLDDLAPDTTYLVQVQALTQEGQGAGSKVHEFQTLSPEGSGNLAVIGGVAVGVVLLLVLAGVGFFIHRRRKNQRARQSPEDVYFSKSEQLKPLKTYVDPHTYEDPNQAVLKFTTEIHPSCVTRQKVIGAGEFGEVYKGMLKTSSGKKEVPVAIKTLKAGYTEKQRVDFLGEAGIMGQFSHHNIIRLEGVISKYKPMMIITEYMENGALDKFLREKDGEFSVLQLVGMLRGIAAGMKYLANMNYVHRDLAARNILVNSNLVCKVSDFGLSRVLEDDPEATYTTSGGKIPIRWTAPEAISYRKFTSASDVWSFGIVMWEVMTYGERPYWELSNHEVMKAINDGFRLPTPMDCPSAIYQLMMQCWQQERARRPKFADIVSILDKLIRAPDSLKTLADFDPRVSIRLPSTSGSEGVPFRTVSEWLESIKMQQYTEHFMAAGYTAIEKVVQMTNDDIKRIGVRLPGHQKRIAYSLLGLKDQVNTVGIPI
Assay: biochemical

SMILES | Ki
CN[C@@H](C)C(=O)N[C@@H](CCCCNC(=N)N)C(=O)N[C@@H](CC(=O)O)C(=O)N[C@H]1CSCCC(=O)N2CN3CN(C2)C(=O)CCSC[C@H](NC(=O)[C@H](CC(C)C)NC(=O)[C@@H]2CCCN2C(=O)[C@H](CC(N)=O)NC(=O)[C@H](C(C)C)NC(=O)[C@H](CC(C)C)NC(=O)[C@@H]2C[C@@H](O)CN2C1=O)C(=O)N[C@@H](CC(C)C)C(=O)N[C@@H](CCC(=O)O)C(=O)N1CCC[C@H]1C(=O)N[C@H](CC(=O)O)C(=O)N[C@@H](Cc1c[nH]c2ccccc12)C(=O)N[C@@H]([C@@H](C)O)C(=O)N[C@H](C(N)=O)CSCCC3=O [BCY13122, [NMeAla]-[HArg]-D-Ci[HyP]LVNPLCiiLEP[dD]WTCiii] (H-[NMeA][hArg]DC[Hyp]LVNPLCLEP[dD]WTC-NH2; linker 4-11-18 via TATA; N-terminus and C-terminus assumed) | 7.8 nM
CC(=O)N[C@H]1CSCCC(=O)N2CN3CN(C2)C(=O)CCSC[C@H](NC(=O)[C@H](CC(C)C)NC(=O)[C@@H]2CCCN2C(=O)[C@H](CC(N)=O)NC(=O)[C@H](C(C)C)NC(=O)[C@H](CC(C)C)NC(=O)[C@@H]2C[C@@H](O)CN2C1=O)C(=O)N[C@@H](CC(C)C)C(=O)N[C@@H](Cc1c[nH]cn1)C(=O)N1CCC[C@H]1C(=O)N[C@H](CC(=O)O)C(=O)N[C@@H](Cc1c[nH]c2ccccc12)C(=O)N[C@@H](CCCCNC(=N)N)C(=O)N[C@H](C(=O)N[C@@H](CC(C)C)C(=O)N[C@H](Cc1c[nH]cn1)C(=O)NCC(=O)N[C@H](CCCCN)C(N)=O)CSCCC3=O [BCY13125, [Ac]Ci[HyP]LVNPLCiiLHP[dD]W[HArg]CiiiL[dH]G[dK]] (Ac-C[Hyp]LVNPLCLHP[dD]W[hArg]CL[dH]G[dK]-NH2; linker 1-8-15 via TATA; C-terminus assumed) | 1.83 nM
CC(C)C[C@@H]1NC(=O)[C@@H]2CSCCC(=O)N3CN(CN(C3)C(=O)CCSC[C@H](NC(=O)[C@H](CC(=O)O)NC(=O)[C@H](CCC(=O)O)NC(=O)[C@@H](C)N)C(=O)N3C[C@H](O)C[C@H]3C(=O)N[C@@H](CC(C)C)C(=O)N[C@@H](C(C)C)C(=O)N[C@@H](CC(N)=O)C(=O)N3CCC[C@H]3C(=O)N[C@@H](CC(C)C)C(=O)N2)C(=O)CCSC[C@@H](C(N)=O)NC(=O)[C@H]([C@@H](C)O)NC(=O)[C@H](Cc2c[nH]c3ccccc23)NC(=O)[C@@H](CC(=O)O)NC(=O)[C@@H]2CCCN2C(=O)[C@H](CCC(=O)O)NC1=O [BCY13126, [dA]-ED-Ci[HyP]LVNPLCiiLEP[dD]WTCiii] (H-[dA]EDC[Hyp]LVNPLCLEP[dD]WTC-NH2; linker 4-11-18 via TATA; N-terminus and C-terminus assumed) | 25.3 nM
CC(C)C[C@@H]1NC(=O)[C@@H]2CSCCC(=O)N3CN(CN(C3)C(=O)CCSC[C@@H](C(=O)N[C@H](CCCCN)C(N)=O)NC(=O)[C@H]([C@@H](C)O)NC(=O)[C@H](Cc3c[nH]c4ccccc34)NC(=O)[C@@H](CC(=O)O)NC(=O)[C@@H]3CCCN3C(=O)[C@H](C(c3ccccc3)c3ccccc3)NC1=O)C(=O)CCSCCC(=O)N1C[C@H](O)C[C@H]1C(=O)N[C@@H](CC(C)C)C(=O)N[C@@H](C(C)C)C(=O)N[C@@H](CC(N)=O)C(=O)N1CCC[C@H]1C(=O)N[C@@H](CC(C)C)C(=O)N2 [BCY13129, [MerPro]i[HyP]LVNPLCiiL[3,3-DPA]P[dD]WTCiii[dK]] ([Mpa][Hyp]LVNPLCL[Dip]P[dD]WTC[dK]-NH2; linker 1-8-15 via TATA; C-terminus assumed) | 1.88 nM
CC(C)C[C@@H]1NC(=O)[C@@H]2CSCCC(=O)N3CN(CN(C3)C(=O)CCSC[C@H](NC(=O)[C@H](CC(=O)O)NC(=O)[C@H](CCCCNC(=N)N)NC(=O)[C@H](C)N)C(=O)N3C[C@H](O)C[C@H]3C(=O)N[C@@H](CCCC(=O)O)C(=O)N[C@@H](C(C)C)C(=O)N[C@@H](CC(N)=O)C(=O)N3CCC[C@H]3C(=O)N[C@@H](CC(C)C)C(=O)N2)C(=O)CCSC[C@@H](C(N)=O)NC(=O)[C@H](CCCCNC(=N)N)NC(=O)[C@H](Cc2c[nH]c3ccccc23)NC(=O)[C@@H](CC(=O)O)NC(=O)[C@@H]2CCCN2C(=O)[C@H](Cc2c[nH]cn2)NC1=O [BCY13130, A-[HArg]-D-Ci[HyP][hGlu]VNPLCiiLHP[dD]W[HArg]Ciii] (H-A[hArg]DC[Hyp][Aad]VNPLCLHP[dD]W[hArg]C-NH2; linker 4-11-18 via TATA; N-terminus and C-terminus assumed) | 7.8 nM
CC(C)C[C@@H]1NC(=O)[C@@H]2C[C@@H](O)CN2C(=O)[C@@H](NC(=O)[C@H](CC(=O)O)NC(=O)[C@H](CCCCNC(=N)N)NC(=O)[C@H](C)N)CSCCC(=O)N2CN3CN(C2)C(=O)CCSC[C@H](NC(=O)[C@H](CC(C)C)NC(=O)[C@@H]2CCCN2C(=O)[C@H](CC(N)=O)NC(=O)[C@H](C(C)C)NC1=O)C(=O)N[C@@H](CCCC(=O)O)C(=O)N[C@@H](Cc1c[nH]cn1)C(=O)N1CCC[C@H]1C(=O)N[C@H](CC(=O)O)C(=O)N[C@@H](Cc1c[nH]c2ccccc12)C(=O)N[C@@H](CCCCNC(=N)N)C(=O)N[C@H](C(N)=O)CSCCC3=O [BCY13131, A-[HArg]-D-Ci[HyP]LVNPLCii[hGlu]HP[dD]W[HArg]Ciii] (H-A[hArg]DC[Hyp]LVNPLC[Aad]HP[dD]W[hArg]C-NH2; linker 4-11-18 via TATA; N-terminus and C-terminus assumed) | 27.1 nM
CC(C)C[C@@H]1NC(=O)[C@@H]2CSCCC(=O)N3CN(CN(C3)C(=O)CCSC[C@H](NC(=O)[C@H](CC(=O)O)NC(=O)[C@H](CCCCNC(=N)N)NC(=O)[C@H](C)N)C(=O)N3C[C@H](O)C[C@H]3C(=O)N[C@@H](CC(C)C)C(=O)N[C@@H](C(C)C)C(=O)N[C@@H](CC(N)=O)C(=O)N3CCC[C@H]3C(=O)N[C@@H](CC(C)C)C(=O)N2)C(=O)CCSC[C@@H](C(N)=O)NC(=O)[C@H](CCCCNC(=N)N)NC(=O)[C@H](Cc2c[nH]c3ccccc23)NC(=O)[C@@H](CC(=O)O)NC(=O)[C@@H]2CCCN2C(=O)[C@H](CCCC(=O)O)NC1=O [BCY13132, A-[HArg]-D-Ci[HyP]LVNPLCiiL[hGlu]P[dD]W[HArg]Ciii] (H-A[hArg]DC[Hyp]LVNPLCL[Aad]P[dD]W[hArg]C-NH2; linker 4-11-18 via TATA; N-terminus and C-terminus assumed) | 7.08 nM
CC(C)C[C@@H]1NC(=O)[C@@H]2CSCCC(=O)N3CN(CN(C3)C(=O)CCSC[C@H](NC(=O)[C@H](CC(=O)O)NC(=O)[C@H](CCCCNC(=N)N)NC(=O)[C@H](C)N)C(=O)N3C[C@H](O)C[C@H]3C(=O)N[C@@H](CC(C)C)C(=O)N[C@@H](C(C)C)C(=O)N[C@@H](CC(N)=O)C(=O)N3CCC[C@H]3C(=O)N[C@@H](CC(C)C)C(=O)N2)C(=O)CCSCCNC(=O)[C@H](CCCCNC(=N)N)NC(=O)[C@H](Cc2c[nH]c3ccccc23)NC(=O)[C@@H](CC(=O)O)NC(=O)[C@@H]2CCCN2C(=O)[C@H](Cc2c[nH]cn2)NC1=O [BCY13133, A[HArg]DCi[HyP]LVNPLCiiLHP[dD]W[HArg][Cysam]iii] (H-A[hArg]DC[Hyp]LVNPLCLHP[dD]W[hArg]; linker 4-11-C via X5; N-terminus assumed) | 3.24 nM
